Data reported in patent publication US7576215B2, “Quinolines and pharmaceutical compositions thereof” (Wyeth, priority 2003, dated 2009).

Structure (SMILES)	melting point [°C]
Cc1cccc(N(C)C(=O)c2cnc3c(C(F)(F)F)cccc3c2-c2ccccc2)c1 [Example 379, N-METHYL-N-(3-METHYLPHENYL)-4-PHENYL-8-(TRIFLUOROMETHYL)QUINOLINE-3-CARBOXAMIDE]	174 to 176
Cc1ccc(N(C)C(=O)c2cnc3c(C(F)(F)F)cccc3c2-c2ccccc2)cc1 [Example 380, N-METHYL-N-(4-METHYLPHENYL)-4-PHENYL-8-(TRIFLUOROMETHYL)QUINOLINE-3-CARBOXAMIDE]	143 to 145
Cc1ccccc1N(C)C(=O)c1cnc2c(C(F)(F)F)cccc2c1-c1ccccc1 [Example 381, N-METHYL-N-(2-METHYLPHENYL)-4-PHENYL-8-(TRIFLUOROMETHYL)QUINOLINE-3-CARBOXAMIDE]	144
CN(C(=O)c1cnc2c(C(F)(F)F)cccc2c1-c1ccccc1)c1cccc(C(F)(F)F)c1 [Example 382, N-METHYL-4-PHENYL-8-(TRIFLUOROMETHYL)-N-[3-(TRIFLUOROMETHYL)PHENYL]QUINOLINE-3-CARBOXAMIDE]	163 to 165
CN(C(=O)c1cnc2c(C(F)(F)F)cccc2c1-c1ccccc1)c1ccc(Cl)cc1 [Example 383, N-(4-CHLOROPHENYL)-N-METHYL-4-PHENYL-8-(TRIFLUOROMETHYL)QUINOLINE-3-CARBOXAMIDE]	177 to 179
CN(C(=O)c1cnc2c(C(F)(F)F)cccc2c1-c1ccccc1)c1cccc(Cl)c1 [Example 384, N-(3-CHLOROPHENYL)-N-METHYL-4-PHENYL-8-(TRIFLUOROMETHYL)QUINOLINE-3-CARBOXAMIDE]	211 to 213
CCc1ccc(N(C)C(=O)c2cnc3c(C(F)(F)F)cccc3c2-c2ccccc2)cc1 [Example 385, N-(4-ETHYLPHENYL)-N-METHYL-4-PHENYL-8-(TRIFLUOROMETHYL)QUINOLINE-3-CARBOXAMIDE]	136 to 138
CCc1cccc(N(C)C(=O)c2cnc3c(C(F)(F)F)cccc3c2-c2ccccc2)c1 [Example 386, N-(3-ETHYLPHENYL)-N-METHYL-4-PHENYL-8-(TRIFLUOROMETHYL)QUINOLINE-3-CARBOXAMIDE]	144 to 146
COc1ccccc1N(C)C(=O)c1cnc2c(C(F)(F)F)cccc2c1-c1ccccc1 [Example 387, N-(2-METHOXYPHENYL)-N-METHYL-4-PHENYL-8-(TRIFLUOROMETHYL)QUINOLINE-3-CARBOXAMIDE]	138
CN(C(=O)c1cnc2c(C(F)(F)F)cccc2c1-c1ccccc1)c1ccc(F)cc1 [Example 388, N-(4-FLUOROPHENYL)-N-METHYL-4-PHENYL-8-(TRIFLUOROMETHYL)QUINOLINE-3-CARBOXAMIDE]	138 to 140
CN(C(=O)c1cnc2c(C(F)(F)F)cccc2c1-c1ccccc1)c1cccc(F)c1 [Example 389, N-(3-FLUOROPHENYL)-N-METHYL-4-PHENYL-8-(TRIFLUOROMETHYL)QUINOLINE-3-CARBOXAMIDE]	200 to 202
FC(F)(F)c1cccc2c(-c3ccccc3)c(-c3ccccc3)cnc12 [Example 390, 3,4-DIPHENYL-8-(TRIFLUOROMETHYL)QUINOLINE]	138 to 140
Oc1cccc(-c2c(-c3ccccc3)cnc3c(C(F)(F)F)cccc23)c1 [Example 391, 3-[3-PHENYL-8-(TRIFLUOROMETHYL)QUINOLIN-4-YL]PHENOL]	123
Oc1cc(-c2c(-c3ccccc3)cnc3c(C(F)(F)F)cccc23)ccc1Cl [Example 392, 2-CHLORO-5-[3-PHENYL-8-(TRIFLUOROMETHYL)QUINOLIN-4-YL]PHENOL]	252
COc1cc(-c2c(-c3ccccc3)cnc3c(C(F)(F)F)cccc23)ccc1Cl [Example 393, 4-(4-CHLORO-3-METHOXYPHENYL)-3-PHENYL-8-(TRIFLUOROMETHYL)QUINOLINE]	172 to 174
Nc1cccc(-c2c(-c3ccccc3)cnc3c(C(F)(F)F)cccc23)c1 [Example 395, {3-[3-PHENYL-8-(TRIFLUOROMETHYL)QUINOLIN-4-YL]PHENYL}AMINE]	163 to 165
O=C(O)Cc1ccc(COc2cccc(-c3c(-c4ccccc4)cnc4c(C(F)(F)F)cccc34)c2)cc1 [Example 398, [4-({3-[3-PHENYL-8-(TRIFLUOROMETHYL)QUINOLIN-4-YL]PHENOXY}METHYL)PHENYL]ACETIC ACID]	122
FC(F)(F)c1cccc2c(-c3ccccc3)c(Oc3ccccc3)cnc12 [Example 407, 3-PHENOXY-4-PHENYL-8-(TRIFLUOROMETHYL)QUINOLINE]	122

Now from value to compound:

melting point [°C]	Structure (SMILES)
139 to 141	FC(F)(F)c1cccc2c(-c3ccccc3)c(Sc3ccccc3)cnc12 [Example 411, 4-PHENYL-3-(PHENYLTHIO)-8-(TRIFLUOROMETHYL)QUINOLINE]
85	Oc1ccc(F)c(-c2c(-c3ccccc3)cnc3c(C(F)(F)F)cccc23)c1 [Example 412, 4-FLUORO-3-[3-PHENYL-8-(TRIFLUOROMETHYL)QUINOLIN-4-YL]PHENOL]
186 to 187	Oc1cccc(-c2c(-c3ccccc3F)cnc3c(C(F)(F)F)cccc23)c1 [Example 458, 3-[3-(2-FLUOROPHENYL)-8-(TRIFLUOROMETHYL)QUINOLIN-4-YL]PHENOL]
175 to 177	Cc1nc2c(C(F)(F)F)cccc2c(-c2ccccc2)c1C(=O)c1ccccc1 [Example 477, [2-METHYL-4-PHENYL-8-(TRIFLUOROMETHYL)QUINOLIN-3-YL](PHENYL)METHANONE]
60 to 63	COC(=O)c1ccc(COc2cccc(-c3c(C(=O)c4ccccc4)cnc4c(C(F)(F)F)cccc34)c2)c(OC)c1 [Example 507, METHYL-4-({3-[3-BENZOYL-8-(TRIFLUOROMETHYL)QUINOLIN-4-YL]PHENOXY}METHYL)-3-METHOXYBENZOATE]
108 to 112	O=C(O)c1ccc(COc2cccc(-c3c(-c4ccccc4)cnc4c(C(F)(F)F)cccc34)c2)cc1 [Example 512, 4-({3-[3-PHENYL-8-(TRIFLUOROMETHYL)QUINOLIN-4-YL]PHENOXY}METHYL)BENZOIC ACID]
100 to 110	COc1cc(C(=O)O)ccc1COc1cccc(-c2c(C(=O)c3ccccc3)cnc3c(C(F)(F)F)cccc23)c1 [Example 515, 4-({3-[3-BENZOYL-8-(TRIFLUOROMETHYL)QUINOLIN-4-YL]PHENOXY}METHYL)-3METHOXY-BENZOIC ACID]
218 to 220	Cc1ccccc1-c1cnc2c(C(F)(F)F)cccc2c1-c1cccc(NC(=O)Nc2ccccc2F)c1 [Example 573, N-(2-FLUOROPHENYL)-N′-{3-[3-(2-METHYLPHENYL)-8-(TRIFLUOROMETHYL)QUINOLIN-4-YL]PHENYL}UREA]
